Results: US20080260682A1, “Polyethylene glycol colonic purgative composition” (Salix Pharmaceuticals, Inc., priority 2005, published 2008)

Tested on: normal healthy subjects
Details: in vivo
Procedure: In addition, the safety and tolerability of the PEG 8000 was evaluated.
This study was a double-blinded, randomized, crossover study with 16 healthy male subjects. Subjects were randomly assigned to one of two dosing sequences: Sequence A (n=9) or Sequence B (n=6). For each dosing sequence there were three scheduled visits: a screening visit (Visit 0) and two treatment visits (Visits 1 and 2). […] At the beginning of day 4, the standardized diet ended and subjects were given a low fiber breakfast followed by clear liquids for the rest of the day. On day 5, patients received nothing by mouth (NPO) after the administration of the test materials.
A baseline period measurement period began at 6 p.m. on day 2 and lasted 48 hours. During the baseline period, all bowel movements were collected, recorded, and assessed for consistency and weight. At 6 p.m. on day 4, the test article administration began. […] In both dosing sequences, Visit I was followed by a two-week washout period before subjects crossed over to begin visit 2. During the observation period of test article administration, all bowel movements were collected, recorded, and assessed for consistency and weight. The observation period of test article administration began when the test article was administered and continued until 11 a.m. on day 5.
Subjects drank another 5 doses in the same manner beginning at 6:00 a.m. on day 5.

polyethylene glycol 8000 [PEG 8000]
serious events, severe events, deaths: no serious events, no severe events, and no deaths
